Starred links: 1 amine or outer side, 2 acyl side, 3 side chain; linkers in the order of their positions; H or OH if unused. Positions of bridges follow the written chain, without caps; N, C: chain ends. Non-standard residues stand in square brackets, D forms with d. Residues, ends and D or L forms follow the SMILES beside them. ξ: configuration not given here. *: point of attachment. NMeF = CN[C@@H](Cc1ccccc1)C(=O)O; NMeGABA = CN(CCCC(=O)[*:2])[*:1]; NMeβAla = CN(CCC(=O)[*:2])[*:1]; NMeL = CN[C@@H](CC(C)C)C(=O)O; Thr(3ξ) = CC(O)[C@H](N)C(=O)O; NMeA = CN[C@@H](C)C(=O)O; Piperidide = C1CCN(*)CC1; dNMeA = CN[C@H](C)C(=O)O; Sar = CNCC(=O)O; tBu = CC(C)(C)*

Data set [1] is described as follows: PAMPA (parallel artificial membrane permeability assay). The data set is classed as in vitro ADME. The settings on record: PAMPA; membrane permeation rate (Pe); 50 mM MOPSO buffer pH 6.5 with 5.0% glycocholic acid, 37° C., 18 hours; read-out: iPAMPA Pe. In a few lines:
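Artificial membrane was 10% (w/v) egg lecithin plus 0.5% (w/v) cholesterol in dodecane on a PVDF filter. A 10 mM DMSO stock was added at 0.5% (v/v) to donor buffer (50 mM MOPSO, pH 6.5, 5.0% glycocholic acid). After 18 h at 37 °C, LC/MS or LC/UV gave donor and acceptor levels for Pe.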
In general terms: The PAMPA barrier holds no transporters, so it reflects passive diffusion.

The nature of data set [2]: Metabolic stability in human hepatic microsome. The data set is classed as in vitro ADME. The settings on record: microsomes, pH 7.4; human hepatic microsome, NADPH(+); read-out: CL NADPH(+).

For the compound `CC(C)C[C@H]1C(=O)N(C)[C@@H](C)C(=O)N[C@@H]([C@@H](C)O)C(=O)N(C)[C@@H](C)C(=O)N[C@H](C(=O)N(C)[C@@H](Cc2ccccc2)C(=O)N[C@@H](C)C(=O)N2CCCCC2)CC(=O)N(C)[C@H](C)C(=O)N(C)[C@@H](Cc2ccccc2)C(=O)N(C)[C@@H](C)C(=O)N[C@@H](C(C)C)C(=O)N1C` [DP-462] ([dNMeA][NMeF][NMeA]V[NMeL][NMeA]T[NMeA]D[NMeF]A-Piperidide; lactam N-9), the Papp at 18 hours, 50 µM in data set [1] worked out at 9.5 ×10⁻⁶ cm/s. Also, the microsomal CLint at 1 uM in data set [2] was 17 µL/min/mg.

As for `CC(C)C[C@H]1C(=O)N(C)[C@@H](CC(C)C)C(=O)N(C)[C@@H](CC(C)C)C(=O)N[C@H](C(=O)N2CCCCC2)CC(=O)N(C)CCC(=O)N(C)[C@@H](Cc2ccccc2)C(=O)N(C)[C@@H](CC(C)C)C(=O)N[C@@H]([C@@H](C)O)C(=O)N(C)[C@@H](C)C(=O)NCC(=O)N1C` [DP-428] ([NMeβAla][NMeF][NMeL]T[NMeA]G[NMeL][NMeL][NMeL]D-Piperidide; lactam N-10), in data set [1], the Papp at 18 hours, 50 µM came out at 26 ×10⁻⁶ cm/s. Besides, the microsomal CLint at 1 uM in data set [2] came to 77 µL/min/mg.

As for `CC(C)C[C@H]1C(=O)N[C@@H](C(C)C)C(=O)N(C)[C@@H](Cc2ccccc2)C(=O)NCC(=O)N[C@H](C(=O)N(C)[C@@H](Cc2ccccc2)C(=O)N(C)[C@@H](Cc2ccccc2)C(=O)N[C@@H](C)C(=O)N2CCCCC2)CC(=O)N[C@H](C)C(=O)N[C@@H]([C@@H](C)O)C(=O)N(C)[C@@H](C)C(=O)N(C)[C@@H](Cc2ccccc2)C(=O)N1C` [DP-209] ([dA]T[NMeA][NMeF][NMeL]V[NMeF]GD[NMeF][NMeF]A-Piperidide; lactam N-9), the Papp at 18 hours, 50 µM in data set [1] came to 42 ×10⁻⁶ cm/s. The microsomal CLint at 1 uM in data set [2] was 98 µL/min/mg.

In the case of `CC(C)C[C@H]1C(=O)N[C@@H](COC(C)(C)C)C(=O)N[C@H](C(=O)N2CCCCC2)CC(=O)N(C)CCC(=O)N(C)[C@@H](C)C(=O)N(C)[C@@H](Cc2ccccc2)C(=O)N(C)[C@@H](CC(C)C)C(=O)N[C@@H]([C@@H](C)O)C(=O)N(C)[C@@H](C)C(=O)N1C` [DP-269] ([NMeβAla][NMeA][NMeF][NMeL]T[NMeA][NMeL]S(tBu)D-Piperidide; lactam N-9), the Papp at 18 hours, 50 µM in data set [1] came out at 11 ×10⁻⁶ cm/s. Besides, in data set [2], the microsomal CLint at 1 uM turned out to be 58 µL/min/mg.

Take `CC(C)C[C@H]1C(=O)N[C@@H](COC(C)(C)C)C(=O)N[C@H](C(=O)N2CCCCC2)CC(=O)N(C)CC(=O)N(C)[C@@H](Cc2ccccc2)C(=O)N(C)[C@@H](C)C(=O)N(C)[C@@H](CC(C)C)C(=O)N[C@@H]([C@@H](C)O)C(=O)N(C)[C@@H](C)C(=O)N1C` [DP-163] ([Sar][NMeF][NMeA][NMeL]T[NMeA][NMeL]S(tBu)D-Piperidide; lactam N-9): the Papp at 18 hours, 50 µM in data set [1] was 23 ×10⁻⁶ cm/s. In data set [2], the microsomal CLint at 1 uM amounted to 68 µL/min/mg.

Take `CC[C@H](C)[C@@H]1NC(=O)[C@H](CC(C)C)N(C)C(=O)[C@H](Cc2ccccc2)NC(=O)[C@@H](C)N(C)C(=O)C[C@@H](C(=O)N2CCCCC2)NC(=O)[C@H](Cc2ccccc2)NC(=O)[C@H](C(C)O)NC(=O)[C@@H]2CCCN2C(=O)[C@H](CC(C)C)N(C)C(=O)CNC(=O)[C@H](CC(C)C)N(C)C1=O` (stereo partly drawn) [DP-162] ([dNMeA]F[NMeL]I[NMeL]G[NMeL]P[Thr(3ξ)]FD-Piperidide; lactam N-11): in data set [1], the Papp at 18 hours, 50 µM came to 35 ×10⁻⁶ cm/s. The microsomal CLint at 1 uM in data set [2] was determined as 90 µL/min/mg.

With `CC(C)C[C@H]1C(=O)N[C@H](C(=O)N2CCCCC2)CC(=O)N(C)[C@@H](C)C(=O)N(C)[C@@H](Cc2ccccc2)C(=O)N(C)[C@@H](CC(C)C)C(=O)N[C@@H]([C@@H](C)O)C(=O)N(C)CC(=O)N1C` [DP-533] ([NMeA][NMeF][NMeL]T[Sar][NMeL]D-Piperidide; lactam N-7), the Papp at 18 hours, 50 µM in data set [1] came out at 10 ×10⁻⁶ cm/s. Further, the microsomal CLint at 1 uM in data set [2] stood at 86 µL/min/mg.

As to `CC(C)C[C@H]1C(=O)N[C@@H](Cc2ccccc2)C(=O)N[C@H](C(=O)N(C)[C@@H](Cc2ccccc2)C(=O)N[C@@H](C)C(=O)N2CCCCC2)CC(=O)N(C)CCCC(=O)N[C@@H]([C@@H](C)O)C(=O)N(C)CC(=O)N(C)[C@@H](C)C(=O)N[C@@H](C(C)C)C(=O)N(C)[C@@H](Cc2ccccc2)C(=O)N1C` [DP-383] ([NMeGABA]T[Sar][NMeA]V[NMeF][NMeL]FD[NMeF]A-Piperidide; lactam N-9), in data set [1], the Papp at 18 hours, 50 µM worked out at 14 ×10⁻⁶ cm/s. In addition, the microsomal CLint at 1 uM in data set [2] turned out to be 138 µL/min/mg.

On to `CC(C)C[C@H]1C(=O)N[C@H](C(=O)N2CCCCC2)CC(=O)N(C)[C@H](C)C(=O)N(C)[C@@H](Cc2ccccc2)C(=O)N(C)[C@@H](CC(C)C)C(=O)N[C@@H]([C@@H](C)O)C(=O)N(C)[C@@H](C)C(=O)N[C@@H](COC(C)(C)C)C(=O)N1C` [DP-682] ([dNMeA][NMeF][NMeL]T[NMeA]S(tBu)[NMeL]D-Piperidide; lactam N-8), for which the Papp at 18 hours, 50 µM in data set [1] was 13 ×10⁻⁶ cm/s. In addition, the microsomal CLint at 1 uM in data set [2] amounted to 20 µL/min/mg.

Values taken from US9409952B2, “Peptide-compound cyclization method” (Chugai Seiyaku Kabushiki Kaisha, priority 2011, dated 2016).
